From patent US20110245179A1, “Composition for Prevention or Treatment of Heart Failure” (priority 2008, published 2011)

Key:
PKCδ = PKCδ (Homo sapiens, UniProt Q05655); details: cited from earlier work
PKCβ = PKCβ (Homo sapiens, UniProt P05771); details: cited from earlier work
PKCζ = biological target: T1, PKCζ (Homo sapiens, UniProt Q05513); details: cited from earlier work
T1 sequence (Q05513 1-592): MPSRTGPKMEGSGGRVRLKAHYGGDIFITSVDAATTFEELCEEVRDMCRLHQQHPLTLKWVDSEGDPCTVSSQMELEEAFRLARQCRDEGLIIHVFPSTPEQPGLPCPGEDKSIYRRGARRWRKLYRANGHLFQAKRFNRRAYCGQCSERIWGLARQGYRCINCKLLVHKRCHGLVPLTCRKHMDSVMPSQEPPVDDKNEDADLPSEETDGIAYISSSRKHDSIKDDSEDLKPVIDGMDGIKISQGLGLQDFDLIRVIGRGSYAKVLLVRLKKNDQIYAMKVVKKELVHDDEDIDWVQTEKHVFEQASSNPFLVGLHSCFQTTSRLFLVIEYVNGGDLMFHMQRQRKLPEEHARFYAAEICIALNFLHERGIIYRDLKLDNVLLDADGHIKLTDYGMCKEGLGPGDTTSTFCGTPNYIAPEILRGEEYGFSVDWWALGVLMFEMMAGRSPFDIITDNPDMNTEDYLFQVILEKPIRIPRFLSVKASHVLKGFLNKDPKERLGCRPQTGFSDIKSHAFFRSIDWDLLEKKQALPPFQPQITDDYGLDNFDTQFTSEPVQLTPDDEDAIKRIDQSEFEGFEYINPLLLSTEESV

cardiac myocytes = experiment: Measurement of myocardial contractility (video-based edge detection); type: cell-based, Sprague-Dawley (SD) rat; details: 100 nM for 30 minutes
From the text: The sequence of a peptide inhibitor was designed based on the experiment of Daria Mochly-Rosen^11-13. The amino acid sequences of the protein kinase C ζ (PKCζ) inhibitor are described as SEQ ID NO: 1 and SEQ ID NO: 2. They are called the pseudosubstrate region. In contrast, the amino acid sequence of the PKCα inhibitor is QLVIAN. Each peptide inhibitor is linked at the amino-end with the TAT peptide YGRKKRRQRRR via the GGG bridge. As a normal group for comparison, a peptide comprising the TAT amino acid sequence was used. Cardiac myocytes isolated from 10-week-old Sprague-Dawley (SD) rat were used to test the efficiency of the peptide inhibitor. […]
The cardiac myocytes were isolated based on the modification of the Ren's method^14. 10-week-old male SD rats (250-300 g) were used for the experiment. After injecting heparin (50 unit), the test animal was anesthetized with isoflurane and the heart was taken out immediately. The heart was connected to a pump and Tyrode's buffer [137 mM NaCl, 5.4 mM KCl, 1 mM MgCl2, 10 mM glucose, 10 mM HEPES, 10 mM 2,3-butanedione monoxime and 5 mM taurine (Sigma), pH 7.4] at 37° C. was supplied through the coronary artery. After removing blood from the heart by pumping for 5 minutes, intercellular adhesion molecules were digested by perfusing enzyme solution [collagenase type B (0.35 U/mL, Roche), hyaluronidase (0.1 mg/mL, Sigma)] through the coronary artery. After sufficient digestion through perfusion for 20 minutes, the heart was stabilized and protected from the enzymes in 0.5% BSA solution. In all the experiments, only the rod-shaped, healthy cardiac myocytes with a distinct striation pattern were used.
The entire culture procedure was carried out in a class II flow hood. Culture dishes were precoated for 1 hour with 40 µg/mL mouse laminin (BD Biosciences) at room temperature. The isolated cardiac myocytes were cultured in Dulbecco's minimal essential medium (HyClone) containing 50 units/mL penicillin, 50 μg/mL streptomycin, 5 mM taurine, […] and […]. The cardiac myocytes were stabilized for 2 hours in a 5% CO2 incubator at 37° C., and then myocardial contractility was measured.
Myocardial contractility was measured using a video-based edge detection system (IonOptix; Milton, Mass.)^15. The cultured cardiac myocytes were placed on a over slip and observed under an inverted microscope (Nikon Eclipse TE-100F). To the cardiac myocytes, Tyrode's buffer (137 mM NaCl, 5.4 mM KCl, 1 mM MgCl2, 10 mM glucose and 10 mM HEPES, pH 7.4) was continuously supplied (at 37° C., at a rate of ˜1 mL/min). The cells were stimulated with a voltage of 30 V at 1 Hz. A STIM-AT stimulator/thermostat was used. […] The motion was recorded at every 8.3 ms. The recorded motion of the cardiac myocytes was analyzed with the soft-edge software (IonOptix).

Sequence of PKCβ (P05771 whole entry, species assumed): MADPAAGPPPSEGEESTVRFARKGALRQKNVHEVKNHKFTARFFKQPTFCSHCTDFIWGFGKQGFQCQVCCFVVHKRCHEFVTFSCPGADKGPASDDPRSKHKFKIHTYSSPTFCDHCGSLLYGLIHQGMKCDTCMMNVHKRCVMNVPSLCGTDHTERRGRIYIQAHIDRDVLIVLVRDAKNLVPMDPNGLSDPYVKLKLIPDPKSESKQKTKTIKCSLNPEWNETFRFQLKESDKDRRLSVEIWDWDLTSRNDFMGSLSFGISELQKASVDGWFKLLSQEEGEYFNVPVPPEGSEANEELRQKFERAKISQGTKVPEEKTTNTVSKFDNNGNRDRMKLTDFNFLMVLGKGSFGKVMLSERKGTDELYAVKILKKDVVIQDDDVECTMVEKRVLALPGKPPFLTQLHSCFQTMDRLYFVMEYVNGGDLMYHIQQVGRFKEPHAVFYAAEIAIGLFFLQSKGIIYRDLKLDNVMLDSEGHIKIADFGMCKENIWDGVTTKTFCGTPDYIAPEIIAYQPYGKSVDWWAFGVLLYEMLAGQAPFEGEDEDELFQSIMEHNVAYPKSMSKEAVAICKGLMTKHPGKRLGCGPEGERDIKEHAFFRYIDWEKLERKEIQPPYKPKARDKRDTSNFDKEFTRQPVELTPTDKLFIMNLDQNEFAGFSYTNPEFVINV
Sequence of PKCδ (Q05655 whole entry): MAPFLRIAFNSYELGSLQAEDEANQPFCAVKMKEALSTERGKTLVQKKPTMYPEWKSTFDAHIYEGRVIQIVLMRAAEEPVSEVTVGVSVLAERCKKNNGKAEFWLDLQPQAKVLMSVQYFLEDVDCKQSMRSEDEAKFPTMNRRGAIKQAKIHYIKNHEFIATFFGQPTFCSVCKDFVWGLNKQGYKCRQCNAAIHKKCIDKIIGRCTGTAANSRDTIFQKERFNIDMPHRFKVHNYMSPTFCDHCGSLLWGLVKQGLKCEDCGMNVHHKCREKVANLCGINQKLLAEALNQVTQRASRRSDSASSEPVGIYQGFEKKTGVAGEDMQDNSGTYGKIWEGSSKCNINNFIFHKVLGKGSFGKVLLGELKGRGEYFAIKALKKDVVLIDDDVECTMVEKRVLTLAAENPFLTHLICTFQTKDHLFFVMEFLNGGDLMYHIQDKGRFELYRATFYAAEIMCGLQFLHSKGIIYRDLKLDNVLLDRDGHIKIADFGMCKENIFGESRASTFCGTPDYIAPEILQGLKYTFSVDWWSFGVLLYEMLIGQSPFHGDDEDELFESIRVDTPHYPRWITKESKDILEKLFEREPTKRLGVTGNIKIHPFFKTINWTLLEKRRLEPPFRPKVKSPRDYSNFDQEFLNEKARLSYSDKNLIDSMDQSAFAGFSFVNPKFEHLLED

CCOC(=O)c1c(NC(C)=O)sc(/C(C)=N/O)c1-c1ccccc1 [Chemical Formula II, ethyl (5E)-2-acetylimino-5-[1-(hydroxyamino)ethylidene]-4-phenyl-thiophene-3-carboxylate]
IC50 (PKCδ): > 100 µM | IC50 (PKCβ): > 100 µM

CN1CCN(Cc2c3ccccc3cc3ccccc23)CC1 [Chemical Formula III, 1-(anthracen-9-ylmethyl)-4-methyl-piperazine]
IC50 (PKCζ): 25 µM | IC50 (PKCδ): > 100 µM | IC50 (PKCβ): 50 µM

CCOC(=O)c1c(NC(=S)N2CCN(S(C)(=O)=O)CC2)sc(C)c1-c1ccccc1 [Chemical Formula IV]
inhibitory effect relative to that of the compound of Chemical Formula II (PKCζ; tested at 100 μM): about 1.2 times

CN1CCN(c2cccc3[nH]c(-c4n[nH]c5cc(-c6ccc(N)cc6)ccc45)nc23)CC1 [Chemical Formula IX]
increase of maximal rate of contraction (cardiac myocytes): ≥ 2 times | increase of maximal rate of relaxation (cardiac myocytes): ≥ 2 times | increased maximal myocardial contractility as compared to the normal group (cardiac myocytes): about 2.4 times

CN1CCN(c2cccc3[nH]c(-c4n[nH]c5cc(-c6ccc(CN)cc6)ccc45)nc23)CC1 [Chemical Formula X]
increase of maximal rate of contraction (cardiac myocytes): 1.2 times | increase of maximal rate of relaxation (cardiac myocytes): 1.2 times | increased maximal myocardial contractility as compared to the normal group (cardiac myocytes): about 1.4 times
